Results: PubChem BioAssay AID1918932 (Molecular Pharmacology Branch, DTP, NCI, 2023)
Values joined by “and” are separate entries in the source; they are usually repeats but may differ in a detail not shown here. Equal entries are not always repeated.

System: 171881-019-R-J1-PDC complex spheroid viability
Test: Anticancer human tumor 171881-019-R-J1-PDC patient-derived invasive breast carcinoma cell line growth inhibition
Details: for viability, T/C: stronger effect = lower value
In short: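 Drug combinations with the LSD1 inhibitor iadademstat tested on tumor cells co-cultured as spheroids with endothelial cells and mesenchymal stem cells. Concentrations descended in half-log increments from clinical Cmax or 10 microM.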

[1] = curve of first compound, second compound 0.1 µM
[2] = curve of first compound, second compound 0.316 µM
[3] = curve of first compound, second compound 1 µM
[4] = curve of first compound, second compound 3.16 µM
[5] = curve of first compound, second compound 10 µM
[6] = second compound 0.1 µM, first compound 0.0316 µM
[7] = second compound 0.1 µM, first compound 0.1 µM
[8] = second compound 0.316 µM, first compound 0.0316 µM
[9] = second compound 0.316 µM, first compound 0.1 µM
[10] = second compound 1 µM, first compound 0.0316 µM
[11] = second compound 1 µM, first compound 0.1 µM
[12] = second compound 3.16 µM, first compound 0.0316 µM
[13] = second compound 3.16 µM, first compound 0.1 µM
[14] = second compound 10 µM, first compound 0.0316 µM
[15] = second compound 10 µM, first compound 0.1 µM
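Note: spheroids exposed to agents for 7 days after 3 days growth.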

SMILES: CC1COCCN1c1cc(C2(S(C)(=N)=O)CC2)nc(-c2ccnc3[nH]ccc23)n1 (configuration not stated) + NC1CC1c1ccc(-c2cccc(O)c2)cc1
- IC50 [1]: 1.37 µM
- IC50 [2]: 1.45 µM
- IC50 [3]: 1.47 µM
- IC50 [4]: 1.41 µM
- IC50 [5]: 1.15 µM
- viability, T/C [6]: 103%
- viability, T/C [7]: 102%
- viability, T/C (second compound 0.1 µM, first compound 0.316 µM): 97.9%
- viability, T/C (second compound 0.1 µM, first compound 1 µM): 59.6%
- viability, T/C (second compound 0.1 µM, first compound 3.16 µM): 22.3%
- viability, T/C (second compound 0.1 µM, first compound 10 µM): 9.45%
- viability, T/C [8]: 106%
- viability, T/C [9]: 103%
- viability, T/C (second compound 0.316 µM, first compound 0.316 µM): 99.3%
- viability, T/C (second compound 0.316 µM, first compound 1 µM): 61.1%
- viability, T/C (second compound 0.316 µM, first compound 3.16 µM): 24.7%
- viability, T/C (second compound 0.316 µM, first compound 10 µM): 9.56%
- viability, T/C [10]: 103%
- viability, T/C [11]: 104%
- viability, T/C (second compound 1 µM, first compound 0.316 µM): 91.1%
- viability, T/C (second compound 1 µM, first compound 1 µM): 63.5%
- viability, T/C (second compound 1 µM, first compound 3.16 µM): 24.3%
- viability, T/C (second compound 1 µM, first compound 10 µM): 9.48%
- viability, T/C [12]: 99.5%
- viability, T/C [13]: 104%
- viability, T/C (second compound 3.16 µM, first compound 0.316 µM): 96.9%
- viability, T/C (second compound 3.16 µM, first compound 1 µM): 61.5%
- viability, T/C (second compound 3.16 µM, first compound 3.16 µM): 21.8%
- viability, T/C (second compound 3.16 µM, first compound 10 µM): 8.64%
- viability, T/C [14]: 86.4%
- viability, T/C [15]: 87.7%
- viability, T/C (second compound 10 µM, first compound 0.316 µM): 81.6%
- viability, T/C (second compound 10 µM, first compound 1 µM): 53.3%
- viability, T/C (second compound 10 µM, first compound 3.16 µM): 21.1%
- viability, T/C (second compound 10 µM, first compound 10 µM): 8.98%

SMILES: COc1cc(C2c3cc4c(cc3C(OC3OC5COC(C)OC5C(O)C3O)C3COC(=O)C23)OCO4)cc(OC)c1O (configuration not stated) + NC1CC1c1ccc(-c2cccc(O)c2)cc1
- IC50 [1]: 0.753 µM
- IC50 [2]: 1.01 µM
- IC50 [3]: 0.793 µM
- IC50 [4]: 0.554 µM
- IC50 [5]: 0.406 µM
- viability, T/C (second compound 0.1 µM, first compound 0.00949 µM): 102%
- viability, T/C (second compound 0.1 µM, first compound 0.03 µM): 97%
- viability, T/C (second compound 0.1 µM, first compound 0.0949 µM): 74%
- viability, T/C (second compound 0.1 µM, first compound 0.3 µM): 64%
- viability, T/C (second compound 0.1 µM, first compound 0.949 µM): 48.3%
- viability, T/C (second compound 0.1 µM, first compound 3 µM): 29.2%
- viability, T/C (second compound 0.316 µM, first compound 0.00949 µM): 105%
- viability, T/C (second compound 0.316 µM, first compound 0.03 µM): 101%
- viability, T/C (second compound 0.316 µM, first compound 0.0949 µM): 80.8%
- viability, T/C (second compound 0.316 µM, first compound 0.3 µM): 69.6%
- viability, T/C (second compound 0.316 µM, first compound 0.949 µM): 51.4%
- viability, T/C (second compound 0.316 µM, first compound 3 µM): 33.3%
- viability, T/C (second compound 1 µM, first compound 0.00949 µM): 105%
- viability, T/C (second compound 1 µM, first compound 0.03 µM): 95.3%
- viability, T/C (second compound 1 µM, first compound 0.0949 µM): 84.9%
- viability, T/C (second compound 1 µM, first compound 0.3 µM): 66.4%
- viability, T/C (second compound 1 µM, first compound 0.949 µM): 46.9%
- viability, T/C (second compound 1 µM, first compound 3 µM): 28.1%
- viability, T/C (second compound 3.16 µM, first compound 0.00949 µM): 103%
- viability, T/C (second compound 3.16 µM, first compound 0.03 µM): 99.9%
- viability, T/C (second compound 3.16 µM, first compound 0.0949 µM): 78.7%
- viability, T/C (second compound 3.16 µM, first compound 0.3 µM): 59%
- viability, T/C (second compound 3.16 µM, first compound 0.949 µM): 43.6%
- viability, T/C (second compound 3.16 µM, first compound 3 µM): 27.9%
- viability, T/C (second compound 10 µM, first compound 0.00949 µM): 84.3%
- viability, T/C (second compound 10 µM, first compound 0.03 µM): 78.2%
- viability, T/C (second compound 10 µM, first compound 0.0949 µM): 69.1%
- viability, T/C (second compound 10 µM, first compound 0.3 µM): 51.3%
- viability, T/C (second compound 10 µM, first compound 0.949 µM): 41.4%
- viability, T/C (second compound 10 µM, first compound 3 µM): 27.4%

SMILES: COc1ccc([C@@H](O)c2cc(-c3ncnc4cc(N5CCOCC5)ccc34)c(F)cc2Cl)nn1
- viability, T/C (compound 0.0316 µM): 101% and 98.9%
- viability, T/C (compound 0.1 µM): 128% and 95.7%
- viability, T/C (compound 0.316 µM): 98.3% and 76%
- viability, T/C (compound 1 µM): 38.5% and 29.6%
- viability, T/C (compound 3.16 µM): 7.38% and 8.2%
- viability, T/C (compound 10 µM): 6.64% and 11.3%
- IC50 (curve of compound): 0.798 µM and 0.599 µM

SMILES: CC(C)CC(NC(=O)C(Cc1ccccc1)NC(=O)c1cnccn1)B(O)O (configuration not stated) + NC1CC1c1ccc(-c2cccc(O)c2)cc1
- IC50 [1]: < 0.000316 µM
- IC50 [2]: < 0.000316 µM
- IC50 [3]: < 0.000316 µM
- IC50 [4]: < 0.000316 µM
- IC50 [5]: < 0.000316 µM
- viability, T/C (second compound 0.1 µM, first compound 0.000316 µM): 22.8%
- viability, T/C (second compound 0.1 µM, first compound 0.001 µM): 21.4%
- viability, T/C (second compound 0.1 µM, first compound 0.00316 µM): 16.4%
- viability, T/C (second compound 0.1 µM, first compound 0.01 µM): 10.8%
- viability, T/C [6]: 9.75%
- viability, T/C [7]: 13.1%
- viability, T/C (second compound 0.316 µM, first compound 0.000316 µM): 24.2%
- viability, T/C (second compound 0.316 µM, first compound 0.001 µM): 8.57%
- viability, T/C (second compound 0.316 µM, first compound 0.00316 µM): 10.7%
- viability, T/C (second compound 0.316 µM, first compound 0.01 µM): 11%
- viability, T/C [8]: 13.4%
- viability, T/C [9]: 9.51%
- viability, T/C (second compound 1 µM, first compound 0.000316 µM): 23.8%
- viability, T/C (second compound 1 µM, first compound 0.001 µM): 18.2%
- viability, T/C (second compound 1 µM, first compound 0.00316 µM): 6.24%
- viability, T/C (second compound 1 µM, first compound 0.01 µM): 7.73%
- viability, T/C [10]: 7.79%
- viability, T/C [11]: 7.59%
- viability, T/C (second compound 3.16 µM, first compound 0.000316 µM): 3.29%
- viability, T/C (second compound 3.16 µM, first compound 0.001 µM): 4.7%
- viability, T/C (second compound 3.16 µM, first compound 0.00316 µM): 3.45%
- viability, T/C (second compound 3.16 µM, first compound 0.01 µM): 8.88%
- viability, T/C [12]: 6.7%
- viability, T/C [13]: 5.34%
- viability, T/C (second compound 10 µM, first compound 0.000316 µM): 5.61%
- viability, T/C (second compound 10 µM, first compound 0.001 µM): 8.2%
- viability, T/C (second compound 10 µM, first compound 0.00316 µM): 0.52%
- viability, T/C (second compound 10 µM, first compound 0.01 µM): 3.61%
- viability, T/C [14]: 8.57%
- viability, T/C [15]: 1.8%
